This note sets out measurements from patent publication US20060040871A1, “Bacterial transforming agent” (priority 2003, published 2006).

Test [1] concerns MRSA. Put plainly: MIC of ceftazidime or cefuroxime for MRSA grown with or without GBE (Table 2). The test is classed as cell-based, Staphylococcus aureus. The following applies: Control; for MIC: Staphylococcus aureus. The source says:
Importantly, the usefulness of the agents of the present invention is not limited to increasing bacterial sensitivity to methicillin.

Test [2] relates to MRSA with intermediate resistance to glycopeptides. Put plainly: MIC of vancomycin or teicoplanin for MRSA with intermediate resistance to glycopeptides grown with GBE or NAGly (Table 4). It counts as cell-based, Staphylococcus aureus. The settings on record: NAGly 0.001M; for MIC: Staphylococcus aureus, read-out: MIC of teicoplanin.
Test [3] has as its system S. aureus. The test is described as follows: MIC of methicillin for already sensitive S. aureus with GBE, with or without 1% human plasma (Table 6). It counts as cell-based, Staphylococcus aureus. The settings on record: Staphylococcus aureus, no plasma (Control 1). The source says: As previously mentioned, a common cause of auto-infection is due to S. aureus carried on the anterior nares. […] The transforming agents of the present invention may also be used in combination with a suitable antimicrobial to eliminate nasal carriage of MSSA prior to cardiac surgery or other invasive procedures carrying a high risk of auto-infection.

Test [4] concerns MRSA. The test is described as follows: MIC of methicillin for MRSA isolates grown with glycine or GBE (Table 1). The following applies: 0.0 (Control); for MIC: Staphylococcus aureus. It counts as cell-based, Staphylococcus aureus.
For test [5], the system named is VRE. Put plainly: Antimicrobial plus BTA against VRE (Table 7). The test is classed as cell-based, enterococci. The settings on record: +BTA 0.01%.
The test system of test [6] is MRSA. Put plainly: Antimicrobial plus BTA against recent clinical MRSA isolates (Table 7). It counts as cell-based, Staphylococcus aureus. The source says: The four clinical isolates were isolated from patients during the first three months of 2003. […] An intermediate MRSA has been included, as methicillin-resistance has been achieved by means other than production of PBP2a.

Read-outs that look alike come from different tables or passages of the source.

Usually MIC stands for the least concentration at which growth counts as inhibited. As to `CO/N=C(\C(=O)N[C@@H]1C(=O)N2C(C(=O)O)=C(COC(N)=O)CS[C@H]12)c1ccco1` [Cefuroxime, cefuroxime], the MIC of cefuroxime in test [1] (CD40 (EMRSA-1)), in test [1] (E15-97 (EMRSA-15)), in test [1] (E16-96 (EMRSA-16)), in test [1] (JF1-32 (EMRSA-1)), in test [1] (MC01 (EMRSA-1)) and in test [1] (PS3-32 (EMRSA-1)) was more than 256 µg/mL each time. Further, the MIC of cefuroxime in test [1] (SN31 (EMRSA-1)), in test [1] (ST11 (EMRSA-1)) and in test [1] (SW2-32 (EMRSA-1)) was more than 256 µg/mL in each case. For the same molecule, the minimal inhibitory concentration (MIC) was more than 256 µg/mL in test [1] (MRSA / NCTC 12493, NCTC 12493, read-out: MIC of cefuroxime) and more than 256 µg/mL in test [1] (MRSA, DS09 (EMRSA-1), read-out: MIC of cefuroxime).

`CC(C)(O/N=C(\C(=O)N[C@@H]1C(=O)N2C(C(=O)[O-])=C(C[n+]3ccccc3)CS[C@H]12)c1csc(N)n1)C(=O)O` [Ceftazidime, ceftazidime]: the MIC of ceftazidime in test [1] (CD40 (EMRSA-1)), in test [1] (E15-97 (EMRSA-15)), in test [1] (E16-96 (EMRSA-16)), in test [1] (JF1-32 (EMRSA-1)), in test [1] (MC01 (EMRSA-1)) and in test [1] (PS3-32 (EMRSA-1)) was more than 256 µg/mL throughout. Besides, the MIC of ceftazidime in test [1] (SN31 (EMRSA-1)), in test [1] (ST11 (EMRSA-1)) and in test [1] (SW2-32 (EMRSA-1)) was more than 256 µg/mL throughout. The MIC in test [1] (MRSA / NCTC 12493, NCTC 12493, read-out: MIC of ceftazidime) is more than 256 µg/mL; in test [1] (MRSA, DS09 (EMRSA-1), read-out: MIC of ceftazidime), more than 256 µg/mL.

For `CC(=O)NCC(=O)O` [NAGly, N-acetylglycine], the MIC of vancomycin in test [2] (L266 (first line), EMRSA-17 (VISA)) stood at 4 µg/mL; in test [2] (L266 (second line), EMRSA-17 (VISA)) it was 2 µg/mL; in test [2] (NCTC 12493), 0.25 µg/mL. In test [2] (L266, EMRSA-16 (TISA)), the MIC of teicoplanin came to 4 µg/mL. The MIC in test [2] (MRSA / NCTC 12493, NCTC 12493) turned out to be 0.15 µg/mL; in test [2] (MRSA, L265, EMRSA-16 (TISA)), 4 µg/mL.

Take `COc1cccc(OC)c1C(=O)N[C@@H]1C(=O)N2[C@@H]1SC(C)(C)[C@@H]2C(=O)O` [methicillin]: the minimal inhibitory concentration (MIC) in test [3] (5518 (EMRSA-1)) is more than 256 µg/mL; in test [3] (LHS77), less than 0.25 µg/mL; in test [3] (LHS78) it was 0.25 µg/mL; in test [3] (LHS79), 0.5 µg/mL; in test [3] (LHS80), 0.25 µg/mL; in test [3] (LHS81), less than 0.25 µg/mL. The MIC in test [3] (LHS82) was determined as 0.5 µg/mL; in test [3] (LHS83) it was 0.25 µg/mL; in test [3] (LHS84), 0.25 µg/mL; in test [3] (LHS85) it was 0.25 µg/mL; in test [3] (LHS86), 0.25 µg/mL; in test [3] (LHS87), 0.5 µg/mL. Besides, the MIC in test [3] (LHS88) is 0.25 µg/mL; in test [3] (LHS89), 0.25 µg/mL; in test [3] (LHS90), less than 0.25 µg/mL; in test [3] (LHS91), less than 0.25 µg/mL; in test [3] (LHS92) it was 0.5 µg/mL; in test [3] (LHS93) it was 0.25 µg/mL. Further, the MIC in test [3] (LHS94) was 0.25 µg/mL; in test [4] (MRSA / NCTC 12493, NCTC 12493) it was more than 256 µg/mL; in test [4] (MRSA, L266) it was more than 256 µg/mL. Also, the MIC of methicillin in test [4] (CD40 (EMRSA-1)), in test [4] (DS09 (EMRSA-1)), in test [4] (E15-97 (EMRSA-15)), in test [4] (E16-96 (EMRSA-16)), in test [4] (JF1-32 (EMRSA-1)) and in test [4] (L265) was more than 256 µg/mL in each case. Moreover, the MIC of methicillin in test [4] (L267), in test [4] (L268), in test [4] (L269), in test [4] (L270), in test [4] (L271) and in test [4] (L272) was more than 256 µg/mL in each case. Besides, the MIC of methicillin in test [4] (L273), in test [4] (L274), in test [4] (L275), in test [4] (L276), in test [4] (L277) and in test [4] (L278) was more than 256 µg/mL throughout. Besides, the MIC of methicillin in test [4] (L279), in test [4] (L280), in test [4] (L281), in test [4] (L282), in test [4] (L283) and in test [4] (L284) was more than 256 µg/mL each time. For the same molecule, the MIC of methicillin in test [4] (L285), in test [4] (L286), in test [4] (L287), in test [4] (L288), in test [4] (L289) and in test [4] (L290) was more than 256 µg/mL throughout. For the same molecule, the MIC of methicillin in test [4] (L291), in test [4] (L292), in test [4] (L293), in test [4] (L294), in test [4] (MC01 (EMRSA-1)) and in test [4] (PS3-32 (EMRSA-1)) was more than 256 µg/mL in each case. The MIC of methicillin in test [4] (SN31 (EMRSA-1)), in test [4] (ST11 (EMRSA-1)) and in test [4] (SW2-32 (EMRSA-1)) was more than 256 µg/mL each time.

For `C#CCC(N)C(=O)O.C#CCC(N)C(=O)O` (centres unmarked) [PPG, Propargylglycine (2-Amino-4-pentynoic acid)], the Vancomycin (antimicrobial plus BTA; quantity not named, MIC implied) in test [5] was 64 µg/mL; in test [6] (EMRSA-16, +BTA 0.01%), 0.25 µg/mL; in test [6] (EMRSA-17, +BTA 0.01%) it was 0.25 µg/mL; in test [6] (I-MRSA, +BTA 0.01%), less than 0.25 µg/mL. The Oxacillin (antimicrobial plus BTA; quantity not named, MIC implied) came out at 4 µg/mL in test [6] (EMRSA-16, +BTA 0.001%); 1.5 µg/mL in test [6] (EMRSA-16, +BTA 0.01%); 8 µg/mL in test [6] (EMRSA-17, +BTA 0.001%); 2 µg/mL in test [6] (EMRSA-17, +BTA 0.01%); 2 µg/mL in test [6] (I-MRSA, +BTA 0.001%); 0.125 µg/mL in test [6] (I-MRSA, +BTA 0.01%). Further, the Cephalexin (antimicrobial plus BTA; quantity not named, MIC implied) was 12 µg/mL in test [6] (EMRSA-16, +BTA 0.01%); 6 µg/mL in test [6] (EMRSA-17, +BTA 0.01%); 0.125 µg/mL in test [6] (I-MRSA, +BTA 0.01%).
